From paper PMC11520554, “The endocannabinoid ARA-S facilitates the activation of cardiac Kv7.1/KCNE1 channels from different species” (Channels, 2024)
Like-named read-outs stand apart in the source and are kept apart here.

Tests used:
[1] = biological target: guinea pig Kv7.1/KCNE1 channel (Cavia porcellus, UniProt A6Y9U2); assay: Two-electrode voltage clamp of Kv7.1/KCNE1 expressed in Xenopus laevis oocytes; format: cell-based
From the text: (§1) Isolation of Xenopus laevis oocytes was approved by the Linköping Animal Care and Use Committee (Permits #1941 and #14515) and conforms to national and international guidelines. All procedures conform to the guidelines from Directive 2010/63/EU of the European Parliament on the protection of animals used for scientific purposes. A total of 30 female adult (minimum 1 year of age) Xenopus laevis animals (from Nasco, WI, USA) underwent surgery to isolate oocytes. The frogs were anaesthetized for 15 minutes in a bath of 1.4 g/L MS-222 Sandoz (Ethyl 3-aminobenzoate methanesulfonate, Sigma Aldrich, Stockholm). The depth of anesthesia was monitored by checking for reflexes when the paws were pinched. A small incision was made on the abdomen to expose lobes of oocytes, which were collected using a surgical scissor. The small incision was closed with suture and local anesthesia (Marcain 5 mg/ml and Xylocain 2%, Distansapoteket, Stockholm) topically applied to relieve pain subsequent to surgery. At the experimental endpoint (in association with the 6th surgery), animals were sacrificed by decapitation under deep anesthesia (which was induced by the bath of 1.4 g/L MS-222 Sandoz). ARRIVE guidelines were followed. Note that experiments were performed on isolated oocytes only (no in vivo experiments were performed). Oocytes were isolated and maintained as previously described. The constructs used had the following accession numbers: human Kv7.1: NM_000218; human KCNE1: NM_000219; guinea pig Kv7.1: NM_001172821.1; guinea pig KCNE1: NM_001172972.1; rabbit Kv7.1: XM_008252197.2; rabbit KCNE1: NM_001109822. Oocytes were injected with RNA for human, guinea pig or rabbit Kv7.1 and KCNE1. The amounts injected were 12.5 ng of human Kv7.1 and 7.5 ng of human KCNE1, 1.25 ng of guinea pig Kv7.1 and 1.25 ng of guinea pig KCNE1, and 0.9 ng of rabbit Kv7.1 and 0.55 ng of rabbit KCNE1. Following injection, the oocytes were generally incubated at 16°C for 1 to 2 days.
(§2) Two-electrode voltage clamp recordings were performed at room temperature using a Dagan CA-1B amplifier (Dagan, MN, USA) or an AxoClamp 900A amplifier (Molecular Devices, CA, USA). All chemicals are from Sigma-Aldrich (Stockholm, Sweden), unless stated otherwise. N-arachidonoyl-L-serine (ARA-S) was bought from Cayman Chemicals (MI, USA) and delivered as a stock solution of 26 mM in EtOH from the supplier. The stock solution was stored at −20°C according to supplier instructions. The control solution contained (in mM): 88 NaCl, 1 KCl, 0.4 CaCl2, 0.8 MgCl2, and 15 HEPES (with pH set to 7.4 using NaOH). For ARA-S experiments, the control solution was supplemented with indicated concentrations of ARA-S. The holding voltage was set to −80 mV. Activation curves were generally generated in steps between −80 and + 60 or +80 mV in increments of 10 mV (5-s duration). The tail voltage was set to −20 or −30 mV. Control solution or ARA-S supplemented solution was continuously perfused into the oocyte chamber at a speed of 1 mL/min using a Minipuls 3 peristaltic pump (Gilson, WI, USA). ARA-S was applied until a stable effect on current amplitude was observed, achieved after approximately 10 minutes, monitored by running an application protocol stepping from a holding voltage of −80 mV to a test voltage of 0 mV every 10 seconds. In the time-matched control experiments for rabbit and guinea pig channels, experiments were performed in a similar way as with ARA-S but with EtOH only; i.e. the first control recording was performed in control solution (no vehicle) and the subsequent recordings done with vehicle only added (i.e. EtOH but no ARA-S). The tubing system and recording chamber were cleaned between cells with 70% EtOH and distilled H2O.
(§3) To quantify the voltage dependence of channel opening, tail currents were measured shortly after stepping to the tail voltage and plotted against the preceding activation voltage. […]

[2] = biological target: T1, human Kv7.1/KCNE1 channel (Homo sapiens, UniProt P51787); assay: as above; format: cell-based
T1 construct: expressed in transfected cells; host or cells: Xenopus laevis oocytes (RNA injection)
From the text: as §1, §2, §3

[3] = biological target: rabbit Kv7.1/KCNE1 channel (Oryctolagus cuniculus, UniProt Q9MYS6); assay: as above; format: cell-based
Chain of rabbit Kv7.1/KCNE1 channel (Q9MYS6 whole entry): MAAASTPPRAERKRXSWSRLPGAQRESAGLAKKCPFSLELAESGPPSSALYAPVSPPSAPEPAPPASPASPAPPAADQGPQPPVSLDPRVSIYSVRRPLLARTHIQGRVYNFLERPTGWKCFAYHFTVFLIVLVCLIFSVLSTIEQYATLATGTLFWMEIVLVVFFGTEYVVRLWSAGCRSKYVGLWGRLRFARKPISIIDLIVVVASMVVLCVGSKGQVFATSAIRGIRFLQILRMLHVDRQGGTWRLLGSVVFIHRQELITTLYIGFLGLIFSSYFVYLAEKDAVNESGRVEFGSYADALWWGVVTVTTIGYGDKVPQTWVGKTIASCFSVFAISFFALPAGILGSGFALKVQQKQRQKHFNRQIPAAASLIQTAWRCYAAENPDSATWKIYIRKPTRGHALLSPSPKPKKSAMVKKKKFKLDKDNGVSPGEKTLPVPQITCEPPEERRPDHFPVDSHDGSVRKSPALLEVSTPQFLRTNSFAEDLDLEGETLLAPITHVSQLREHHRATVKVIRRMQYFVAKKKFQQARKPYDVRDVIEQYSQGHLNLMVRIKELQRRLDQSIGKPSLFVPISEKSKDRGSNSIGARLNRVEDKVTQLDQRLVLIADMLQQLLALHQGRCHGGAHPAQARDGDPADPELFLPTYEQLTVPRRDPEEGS
Chain of rabbit Kv7.1/KCNE1 channel (Q28705 whole entry partner): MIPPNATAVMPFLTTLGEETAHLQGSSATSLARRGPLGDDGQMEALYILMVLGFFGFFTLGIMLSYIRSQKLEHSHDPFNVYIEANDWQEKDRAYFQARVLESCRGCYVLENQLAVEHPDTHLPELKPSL
From the text: as §1, §2, §3

[4] = tested on: Kv7.1/KCNE1 from all three species; assay: Two-electrode voltage clamp, summary over channels from all three species; format: cell-based; settings: predicted from fits, range over human, guinea pig and rabbit channels
From the text: Isolation of Xenopus laevis oocytes was approved by the Linköping Animal Care and Use Committee (Permits #1941 and #14515) and conforms to national and international guidelines. All procedures conform to the guidelines from Directive 2010/63/EU of the European Parliament on the protection of animals used for scientific purposes. A total of 30 female adult (minimum 1 year of age) Xenopus laevis animals (from Nasco, WI, USA) underwent surgery to isolate oocytes. The frogs were anaesthetized for 15 minutes in a bath of 1.4 g/L MS-222 Sandoz (Ethyl 3-aminobenzoate methanesulfonate, Sigma Aldrich, Stockholm). The depth of anesthesia was monitored by checking for reflexes when the paws were pinched. […]
Two-electrode voltage clamp recordings were performed at room temperature using a Dagan CA-1B amplifier (Dagan, MN, USA) or an AxoClamp 900A amplifier (Molecular Devices, CA, USA). […] ARA-S was applied until a stable effect on current amplitude was observed, achieved after approximately 10 minutes, monitored by running an application protocol stepping from a holding voltage of −80 mV to a test voltage of 0 mV every 10 seconds. […]
as §3

[5] = biological target: T1, human Kv7.1/KCNE1 channel; design: method as in PMID 36796231; settings: cited from earlier work
[6] = tested on: cannabinoid receptor 1 (CB1); design: method as in PMID 16467152, PMID 20649563; settings: cited from earlier work
[7] = tested on: CB2; design: method as in PMID 16467152, PMID 20649563; settings: at concentrations as high as 30 µM; cited from earlier work
[8] = tested on: TRPV1 channels; design: method as in PMID 16467152, PMID 20649563; settings: at concentrations as high as 30 µM; cited from earlier work
[9] = tested on: guinea pig heart; design: method as in PMID 36796231; settings: cited from earlier work
[10] = tested on: human Kv7.1/KCNE1 channels; design: method as in PMID 34601592; settings: compared between human and rabbit channels; cited from earlier work
[11] = tested on: rabbit Kv7.1/KCNE1 channels; design: method as in PMID 34601592; settings: compared between human and rabbit channels; cited from earlier work
[12] = tested on: guinea pig-like Kv7.1/KCNE1 channel; design: method as in PMID 32223014; settings: cited from earlier work
[13] = best fit, 0 mV, read-out: EC50 for current amplitude (Iamp) at 0 mV
[14] = best fit, 20 mV, read-out: EC50 for current amplitude (Iamp) at 20 mV
[15] = best fit, 20 mV, read-out: ΔIamp, 20 mV, max
[16] = best fit, 40 mV, read-out: EC50 for current amplitude (Iamp) at 40 mV

CCCCC/C=C\C/C=C\C/C=C\C/C=C\CCCC(=O)NC(CO)C(=O)O (stereo in doubt) [ARA-S, N-arachidonoyl-L-serine]
EC50 ([1]; best fit of concentration-response, n = 5-8, read-out: EC50 for the V50 effect): 6.2 µM
EC50 [1, 13]: 4.7 µM
EC50 [1, 14]: 3 µM
Emax [1, 15]: 733%
EC50 [1, 16]: 4.2 µM
Emax ([1]; best fit, 40 mV, read-out: ΔIamp, 40 mV, max): 631%
Emax ([1]; best fit, maximal change in GMAX, channel has time-dependent GMAX run-up, read-out: ΔGMAX, max): 188%
ΔV50, max ([1]; best fit, maximal shift in V50): −70.4 mV
EC50 ([1]; best fit, read-out: EC50 for the maximal conductance (GMAX) effect): 1.6 µM
Itailmax;ARA-S ([1]; representative cell, 10 µM ARA-S (Itailmax;ctrl = 4.4 µA)): 11.2 µA
V50;ARA-S ([1]; representative cell, 10 µM ARA-S (V50;ctrl = +44.1 mV)): −17.5 mV
ARA-S effect on current amplitude at 0 mV reversed upon washout ([2]; 10 µM of ARA-S, n = 5, mean ± sem): 50 ± 5%
Itailmax;ARA-S ([2]; representative cell, 10 µM ARA-S (Itailmax;ctrl = 6.2 µA)): 10.1 µA
V50;ARA-S ([2]; representative cell, 10 µM ARA-S (V50;ctrl = +30.2 mV)): −23.0 mV
EC50 ([3]; best fit of concentration-response, n = 6-7, read-out: EC50 for the V50 effect): 3100 nM
EC50 [3, 13]: 2200 nM
Emax ([3]; best fit, 0 mV, read-out: ΔIamp, 0 mV, max): 515%
EC50 [3, 14]: 1200 nM
Emax [3, 15]: 225%
ΔV50, max ([3]; best fit, maximal shift in V50): −60.5 mV
Itailmax;ARA-S ([3]; representative cell, 10 µM ARA-S (Itailmax;ctrl = 3.7 µA)): 5.7 µA
V50;ARA-S ([3]; representative cell, 10 µM ARA-S (V50;ctrl = +23.9 mV)): −33.5 mV
anticipated maximal effect on V50 [4]: −60 to −80 mV
EC50 ([4]; read-out: concentration required to reach 50% of the maximal effect on V50): 3 to 9 µM
EC50 ([5]; best fit of concentration-response, human data duplicated, read-out: EC50 for the V50 effect): 8900 nM
ΔIamp, 0 mV, max ([5]; best fit, 0 mV): +497%
EC50 [5, 13]: 2000 nM
ΔIamp, 20 mV, max ([5]; best fit, 20 mV): +197%
EC50 [5, 14]: 1400 nM
ΔIamp, 40 mV, max ([5]; best fit, 40 mV): +58%
EC50 [5, 16]: 600 nM
ΔGMAX, max ([5]; best fit, maximal change in GMAX): +83%
ΔV50, max ([5]; best fit, maximal shift in V50, human data duplicated): −79.6 mV
EC50 ([5]; best fit, human data duplicated, read-out: EC50 for the maximal conductance (GMAX) effect): 5700 nM
binding to cannabinoid receptor 1 (CB1) [6]: bind only weakly
binding to CB2 [7]: no detectable binding
binding to TRPV1 channels [8]: no detectable binding
effect on prolonged QT interval [9]: reversed
effect on prolonged action potential duration [9]: reversed

CC/C=C\C/C=C\C/C=C\C/C=C\C/C=C\C/C=C\CCC(=O)O [DHA, docosahexaenoic acid]
effects on channel [10]: largely comparable activating effects
effects on channel [11]: largely comparable activating effects

CCCCC/C=C\C/C=C\CCCCCCCC(=O)NCC(=O)O [Lin-Gly, linoleoyl glycine]
effects on channel compared to the human Kv7.1/KCNE1 channel [12]: impaired effects
